“And” between values parts separate entries of the source, which are not always exact repeats. Equal entries are not always repeated.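 48-hour exposure; five concentrations; linearly interpolated endpoints. GI50: concentration for 50% inhibition of growth. TGI denotes the concentration required for complete inhibition of growth.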
What was measured:
Assay in all cases: growth of human tumour cells (NCI), 48 h
U251 CNS = tested on: U251 CNS
UACC-257 melanoma = tested on: UACC-257 melanoma
EKVX NSCLC = tested on: EKVX NSCLC
HCT-116 colon = tested on: HCT-116 colon
NCI-H522 lung = tested on: NCI-H522 lung
HL-60(TB) leukemia = tested on: HL-60(TB) leukemia
SK-MEL-28 melanoma = tested on: SK-MEL-28 melanoma
SR leukemia = tested on: SR leukemia

| SMILES | GI50 (U251 CNS) | TGI (U251 CNS) | GI50 (UACC-257 melanoma) | TGI (UACC-257 melanoma) | GI50 (EKVX NSCLC) | TGI (EKVX NSCLC) | GI50 (HCT-116 colon) | TGI (HCT-116 colon) | GI50 (NCI-H522 lung) | TGI (NCI-H522 lung) | GI50 (HL-60(TB) leukemia) | TGI (HL-60(TB) leukemia) | GI50 (SK-MEL-28 melanoma) | TGI (SK-MEL-28 melanoma) | GI50 (SR leukemia) | TGI (SR leukemia) |
| --- | --- | --- | --- | --- | --- | --- | --- | --- | --- | --- | --- | --- | --- | --- | --- | --- |
| COc1cc2nccc(Oc3ccc(NC(=O)C4(C(=O)Nc5ccc(F)cc5)CC4)cc3)c2cc1Oc1ccc(N)cn1 | 2.82 µM | 16.6 µM | 2.74 µM | 51.3 µM | 3.21 µM | > 100 µM | 3.33 µM | > 100 µM | 2.25 µM | 12.7 µM | 2.26 µM | 5.23 µM | 2.56 µM | 32 µM | 3.25 µM | > 100 µM |
| COc1ccc2c(c1)C(=O)C(=O)c1cc(O)c(OC)c(OC)c1-2 | 1.78 µM | 1.64 µM and 3.16 µM | 1.55 µM | 1.61 µM and 2.89 µM | 0.457 µM | 2.09 µM and 1.68 µM | 1.72 µM | 1.6 µM and 3.09 µM | 1.92 µM | 1.74 µM and 3.55 µM |  | 0.681 µM | 1.88 µM | 1.67 µM and 3.58 µM |  | 6.39 µM |
| O=C(CN1CCN(c2ccc(Cl)cc2)CC1)N1CCN(c2nnc(-c3ccc(Cl)cc3)c(-c3ccc(Cl)cc3)n2)CC1 | 41.7 µM | > 100 µM | > 100 µM | > 100 µM | 21.5 µM | > 100 µM | 7.84 µM | > 100 µM | 18.2 µM | 46.9 µM | > 100 µM | > 100 µM | > 100 µM | > 100 µM | 10.1 µM | 53.9 µM |
| N#Cc1ccc(N2Cc3ccccc3OC3=C2C(=O)c2c(O)ccc(O)c2C3=O)cc1 | 0.514 µM | 1.71 µM | 0.258 µM | 0.818 µM | 0.818 µM | 4.17 µM | 0.102 µM | 0.35 µM | 0.0336 µM | 0.162 µM | 0.13 µM | 0.821 µM | 0.216 µM | 0.62 µM | 0.0563 µM |  |
| O=C(Nc1ccc(Cl)cc1F)c1cc(I)ccc1O | 1.64 µM | 21.2 µM | 0.812 µM | 6.64 µM | 1.62 µM | 8.8 µM | 1.22 µM | 2.87 µM | 1.14 µM | 10.5 µM | 1.66 µM | 6.87 µM | 0.487 µM | 3.38 µM | 1.5 µM | > 100 µM |
| O=C(Nc1cccc(Oc2nnc(Cl)c3ccccc23)c1)Nc1ccc(Cl)c(C(F)(F)F)c1 | 1.31 µM | 3.93 µM | 0.952 µM | 3.37 µM | 0.646 µM | 6.49 µM | 1.05 µM | 3.51 µM | 0.499 µM | 3.46 µM | 0.372 µM | 6.06 µM | 0.933 µM | 3.54 µM | 0.321 µM | 1.42 µM |
| CN1CCN(c2ccc3nc(-c4c(N)c5c(F)cccc5[nH]c4=O)[nH]c3c2)CC1 | 1.02 µM and 0.652 µM and 0.78 µM | 2.45 µM and > 3.32 µM and 3.49 µM | 1.69 µM and 0.83 µM and 2.54 µM | 3.26 µM and 2.39 µM and 8.32 µM | 2.38 µM and > 2.44 µM and 4.23 µM | 9.65 µM and > 7.22 µM and 16.2 µM | 0.619 µM and 0.466 µM and 0.992 µM | 1.93 µM and 4.35 µM and 2.4 µM | 0.999 µM and 0.398 µM and 2.29 µM | 2.87 µM and > 2.3 µM and 11.7 µM | 0.86 µM and 0.314 µM and 1.2 µM | 2.8 µM and 2.36 µM and 3.12 µM | 1.51 µM and 0.801 µM and 1.43 µM | 2.96 µM and 2.79 µM and 3.02 µM | 0.472 µM and 0.284 µM and 0.502 µM | 10.2 µM and 1.44 µM and 7.97 µM |
| O=C(Nc1ccc(Oc2ccc3nc(NC(=O)c4ccccc4)[nH]c3c2)cc1)Nc1cc(C(F)(F)F)ccc1F | 1.28 µM | 21.6 µM | 1.39 µM | 11.3 µM | 0.969 µM | > 25 µM | 1.09 µM | > 18.1 µM | 1.6 µM | > 14.9 µM | 0.738 µM | 3.29 µM | 1.61 µM | 12.9 µM | 3.09 µM | 20.2 µM |
| CO/N=C(\C)c1cccc(Nc2cc(-c3ccccc3)nc3c(O)cccc23)c1 | 4.38 µM | 16.7 µM | 4.07 µM | 22.6 µM | 17.4 µM | 59.6 µM | 3.21 µM | 15.2 µM | 2.78 µM | 6.95 µM | 23 µM | > 100 µM | 12.4 µM | 43.5 µM | 3.83 µM | 29.8 µM |
| COC1CCC(O)C(/C=C/[N+](=O)[O-])C1 (centres undefined) |  | 8.04 µM |  | 5.48 µM |  | 15.1 µM |  | 4.58 µM |  | 23.2 µM |  | 5.29 µM |  | 54.9 µM |  | 5.43 µM |
| COc1cnc2c(c1)C(=O)c1c-2n(CCCN2CCC(O)CC2)c(=O)c2cc(F)ccc12 | 0.0814 µM | 0.453 µM | 0.296 µM | 1.81 µM | 0.271 µM | 1.62 µM | 0.0895 µM | 0.591 µM | 0.0584 µM | 0.479 µM | 0.293 µM | 0.96 µM | 1.39 µM | 9.8 µM | 0.0806 µM | 1.19 µM |
| c1ccc(-c2cc(C3CO3)c3ccccc3n2)cc1 (centres undefined) |  | 30 µM |  | 42.7 µM |  | 34.1 µM |  | 30.2 µM |  | 14.6 µM |  | 63.7 µM |  | > 100 µM |  | 45.3 µM |
| CN1CCN(Cc2ccc(NC(=O)c3cncc(C#Cc4cncc5ncccc45)c3)cc2C(F)(F)F)CC1 | 9.49 µM | 21.8 µM | 2.47 µM | 12.4 µM | 3.91 µM | 16.8 µM | 1.26 µM | 11.5 µM | 3.11 µM | 17 µM | 0.303 µM | 2.02 µM | 1.23 µM | 10.7 µM | 3.23 µM | 34.6 µM |
| Cc1ccc(C)c(NC(=O)NCc2ccc(Cl)cc2)c1 |  | > 100 µM |  | > 100 µM |  | > 100 µM |  | > 100 µM |  | 97.3 µM |  | > 100 µM |  | > 100 µM |  | 27.8 µM |
| O=C1c2ccccc2C(=Cc2ccccc2)c2ccccc21 | 2.97 µM | 9.23 µM | 5.22 µM | 23.9 µM | 2.93 µM | 37.9 µM | 1.89 µM | 5.13 µM | 1.55 µM | 5.63 µM | 2.72 µM | 62.8 µM | 4.23 µM | 17.4 µM | 0.871 µM | 18.3 µM |
| CCN1C(=O)NC(=O)C(C)(N2C(=O)c3c(F)c(F)c(F)c(F)c3C2=O)C1=O (centres undefined) | 1.93 µM | 4.04 µM | 4.26 µM | 14 µM | 5.76 µM | 18 µM | 2.36 µM | 7.31 µM | 1.66 µM | 3.97 µM | 1.61 µM | 3.49 µM | 2.25 µM | 5.82 µM | 0.444 µM | 2.22 µM |
| Cc1cnc(/C=N\NC(N)=S)c2cccc(N)c12 | 2 µM | > 100 µM | 4.81 µM | > 38.8 µM | 3.15 µM | > 100 µM and 53.6 µM | 4.41 µM | > 100 µM and 28.3 µM | 3.87 µM | > 100 µM | 0.752 µM | 3.18 µM and 2.83 µM |  | > 100 µM | 0.587 µM |  |
| CCOC(=O)/C=C/c1cc2cc(-c3csc4ccccc34)ccc2[nH]1 | 5.49 µM | 18.8 µM | 12.6 µM | 25.2 µM | 7.36 µM | 20.2 µM | 2.96 µM | 31.4 µM | 4.19 µM | 17 µM | 2.43 µM | 6.57 µM | 10.1 µM | 21.6 µM | 1.98 µM | 8.04 µM |
| CN(C)c1ncnc2c1nnn2C1OC(CO)C(O)C1O (centres undefined) | 1.6 µM | > 100 µM | 0.515 µM | > 100 µM | 2.33 µM | > 100 µM | 0.431 µM | > 100 µM | 0.272 µM | 1.41 µM | 0.239 µM | > 100 µM | 0.404 µM | > 85.2 µM | 0.393 µM | 7.64 µM |
| O=C1C2=Nc3ccccc3C(O)N2c2ccccc21 (centres undefined) |  | > 100 µM |  | 16.5 µM |  | > 100 µM |  | > 100 µM |  | 32.6 µM |  | 34.2 µM |  | > 68.7 µM |  | > 100 µM |
| C/C(=N\N=C(\[Se])N1CCN(c2ccccn2)CC1)c1ccccn1 |  | 16.7 µM | 0.0047 µM | 12.8 µM | 0.0937 µM and 0.559 µM | 9.7 µM | 0.00589 µM | 6.27 µM | 0.0429 µM | 0.761 µM and 3.2 µM | 0.00236 µM |  |  | 22.7 µM | 4.17 µM | 54.4 µM |
| CCOC(=O)c1c2c(n(Cc3ccccc3)c1C)-c1ccccc1C(=O)C2=O | 8.75 µM | 20.8 µM | 28.4 µM | 69.2 µM | 11.9 µM | 29.2 µM | 11.6 µM | 25.2 µM | 14.8 µM | 35.5 µM | 79.4 µM | > 100 µM | 16.4 µM | 41.4 µM | 3.39 µM | 19 µM |
| CC1CCN(CCCCCOc2ccc3oc4cc(Cl)ccc4c(=O)c3c2)CC1 | 5.69 µM | 12.4 µM | 1.33 µM | 3.22 µM | 7.03 µM | 14.3 µM | 2.42 µM | 7.86 µM | 9.09 µM | 18 µM | 2.81 µM | 10.5 µM | 7.07 µM | 13.7 µM | 1.41 µM | 5.18 µM |
| O=C(CF)N(O)c1ccc(/C=C/c2ccccc2)cc1 | 1.82 µM | > 60 µM | 1.67 µM | 5.59 µM | 15.8 µM | > 100 µM | 0.805 µM | 6.63 µM | 12.8 µM | > 100 µM | 0.605 µM | 13.6 µM | > 40.4 µM | > 100 µM | 0.257 µM | 4.04 µM |

From PubChem BioAssay (NCI)
